Assay results reported in patent US20250352494A1, “TRANSDERMAL DELIVERY DEVICE FOR PEPTIDE DELIVERY AND METHODS OF USE” (PassPort Technologies, Inc., priority 2022, published 2025).
Ends that are not written are not given here.

Assays:
[1] = in vivo; conditions: for bioavailability: 2 mg; for PK Profile: Table 40
Procedure: (§1) Animal Studies in Rats. […] In vivo PK studies were performed in CD rats (Charles River Laboratories) according to IACUC-approved Animal Protocols. Each dosing formulation was prepared prior to the experiments. The patch was manufactured according to dry patch manufacturing procedure. The animals for transdermal applications were shaved 1 day before the dosing date. The transdermal microporation was applied using the Applicator and Porator. Then, the patch was placed to cover the porated area for 1 day or a designated duration. After the last blood sampling, the patch was collected, and the application site was wiped by paper or cotton to recover the remaining drug on the skin. The blood samples were collected from the tail vein and transferred into K2-EDTA tube at the designated sampling time. The samples were centrifuged at 4° C., and then plasma samples were obtained. All samples were stored at −80° C. freezer until bioassay.
The plasma samples were stayed at room temperature for 30 minutes. The plasma (50 μL) was transferred into a 2 mL Eppendorf tube (Protein LoBind), then add 50 μL of Acetonitrile/DMSO (4:1, v/v), and vortex the tube for a couple of seconds. The samples were centrifuged for 15 minutes at 3700 rpm, 4° C. The 150 μL of mobile phase A (0.1% formic acid in water) were put into a new tube, then 50 μL of the supernatant were transferred into the tube and the samples were vortexed for 5 minutes. The supernatant was pulled out and the solution was filtered through a 0.20 μm PTFE membrane into an autosampler vial (LCMSMS).

[2] = p3-Alcβ9-19 in mouse plasma (sELISA) after transdermal microporation patch or subcutaneous injection; assay type: in vivo, wild-type mice; conditions: mice plasma
Excerpt: (§2) Animal Studies in Mice. […] The hair was removed prior to the experiments. […] Exp. 21 (2008).
sELISA method for p3-Alcβ9-19 Analysis.

[3] = in vivo
Excerpt: as §2
IgG was purified with antigen-coupled resin and conjugated to biotin. Horseradish peroxidase-conjugated streptavidine was from Amersham/GE Healthcare (Cat #RPN1051, Little Chalfont, UK), and the tetramethylbenzidine (TMB) microwell peroxidase substrate system was from SeraCare Life Sciences Inc. (Cat #5120-0075, Milford, MA, USA). The mice were anesthetized by using 1% isoflurane, and CSF was collected from the cisterna magna in mice as described above, and then mice were sacrificed.
Dis. (2014) 39, 861-870, p3-Alcβ37- and p3-Alcβ40-specific sELISA systems, described in Hata et al “Decrease in p3-Alcβ37 and p3-Alcβ40, products of Alcadeinβ generated by γ-secretase cleavages, in aged monkeys and patients with Alzheimer's disease” Alzheimers Dement TRCI (2019) 5, 740-750.
The next day, the non-binding antibody was removed with wash buffer (0.05% Tween-20 in PBS). The plasma and CSF were diluted 200-fold and 20-fold with EIA buffer (1% BSA, 0.05% Tween-20), respectively. The sample solution was added to 96 well plates and stayed overnight at 4° C. The next day, after washing with wash buffer, purified biotinylated IgG dissolved in PBS was added to […] in each well, and the mixture was kept overnight at 4° C. The next day, the unreacted antibody was washed with wash buffer, streptavidin-HRP (1/5000 in PBS) was added, and the reaction was carried out at 4° C. for 6 to 8 hours. After washing with Wash buffer, TMB color-developing substrate was added, and the mixture was reacted at room temperature for 30 minutes under light-protection. The color development was stopped by adding 1 N H2SO4, and the samples were measured by a plate reader at 450 nm.

[4] = rats; reducing sugar formulation (Table 22); 24 hours after application; without microporation
Procedure: as §1, with “The transdermal microporation was applied using the Applicator and Porator.” left out

[5] = mouse, sc, 30 ug, subcutaneous injection 30 μg
[6] = mouse, cerebrospinal fluid, sc, 30 ug

Work on HRGHQPPPEMA [p3-Alcβ9-19] yielded a bioavailability ([1]; CD, rat, plasma, iv) of 100%, a bioavailability ([1]; CD, rat, plasma, oral) of 0% and a bioavailability ([1]; CD, rat, plasma, other: nasal) of 0%. It also gave a bioavailability ([1]; CD, rat, plasma, other: passive transdermal) of 0%, a Tmax ([1]; CD, rat, plasma, other: transdermal microporation) of ~60 min and a bioavailability ([1]; CD, rat, plasma, subcutaneous) of 120 to 275%. For the same sequence, the “aBA (absolute bioavailability) vs IV (2 mg/body)” value ([1]; Table 33, optimized formulations for immediate delivery, rats, 400 density, 4 mJ/filament) was “about 2000%”, the “PK Profile” value ([1]; Intravenous injection) was “Bolus absorption” and the “PK Profile” value ([1]; Nasal) was “No absorption”. For the same sequence, the “PK Profile” value ([1]; Oral) was “No absorption”, the “PK Profile” value ([1]; Passive Transdermal) was “No absorption” and the “PK Profile” value ([1]; Subcutaneous injection) was “Bolus absorption”. The Absorption ([1]; rats, 5 mg/head, oral, nasal, or passive transdermal routes) was “No absorption”, the “Time by which blood concentrations disappeared” value ([1]; rats, SC injection) was ≤ 1 h and the “Relationship between p3-Alcβ9-19 dose and AUC, FIG. 16” value ([1]; rats, immediate delivery, up to 50 mg of p3-Alcβ9-19 (tested dose)) was “liner dose-dependency”. The PK profiles ([1]; rats, intravenous (IV) and subcutaneous (SC) injections) was “rapid absorption and quick elimination”, the “AUC and Cmax versus p3-Alcβ9-19 dose, FIG. 19A/19B” value ([1]; rats, optimized patch) was “increased p3-Alcβ9-19 dose-dependently” and the “Relationship between p3-Alcβ9-19 dose and AUC, FIG. 17” value ([1]; rats, sustained delivery, up to 25 mg of p3-Alcβ9-19 (tested dose)) was “liner dose-dependency”. For the same sequence, the “BA (relative bioavailability) vs SC (30 μg/body)” value ([2]; subcutaneous injection 30 μg (reference)) was 100%, the Cmax [2, 5] was 25.5 ± 12.5 ng/mL and the Tmax [2, 5] was 18.8 min. The AUC(0-t) ([2]; mouse, sc, 30 ug, subcutaneous injection 30 μg, read-out: AUC0-360 (converted)) was 9.84 ng·h/mL, the “BA (relative bioavailability) vs SC (30 μg/body)” value ([3]; mice CSF, subcutaneous injection 30 μg (reference)) was 100% and the AUC(0-t) [3, 6] was 5.01 ng·h/mL. The Cmax [3, 6] was 14.9 ± 10.7 ng/mL, the Tmax [3, 6] was 15 min and the “p3-Alcβ9-19 recovered (drug residual)” value [4] was “about 100%”.
